“Also recorded” adds a separate entry of the source.
Assays:
[1] = system: PPARalpha (Mus musculus); test: cell_activity; details: activation by 5 uM Wy 14,643 in CV-1 cells
[2] = biological target: T1, PPARα (Mus musculus, UniProt P23204); test: Cotransfection assay, PPRE3-TK-LUC reporter with CMX-PPARα; type: cell-based; details: CV-1 cells; for rank order of efficacy of activation, PPARα: FIG. 4, 5 μM Wy 14,643, 30 μM linoleic acid, 30 μM LY-171883
T1 sequence (P23204 1-468): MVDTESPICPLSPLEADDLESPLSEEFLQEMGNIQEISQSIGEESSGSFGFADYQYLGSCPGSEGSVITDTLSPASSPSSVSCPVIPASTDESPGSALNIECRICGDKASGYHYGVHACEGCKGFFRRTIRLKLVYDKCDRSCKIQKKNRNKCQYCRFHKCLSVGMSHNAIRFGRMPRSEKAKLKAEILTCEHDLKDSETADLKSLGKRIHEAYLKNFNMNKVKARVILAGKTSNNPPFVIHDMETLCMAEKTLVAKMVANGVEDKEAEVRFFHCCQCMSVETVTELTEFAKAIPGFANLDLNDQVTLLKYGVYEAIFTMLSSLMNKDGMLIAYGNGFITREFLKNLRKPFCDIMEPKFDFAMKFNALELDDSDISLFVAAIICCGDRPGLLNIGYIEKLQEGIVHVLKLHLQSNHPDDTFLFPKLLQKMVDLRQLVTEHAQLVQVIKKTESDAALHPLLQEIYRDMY
Text: (§1) The mammalian expression vectors pCMX-PPARα, pCMX-PPARγ and pCMX-PPARδ were constructed by inserting the cDNA inserts of PPARα, PPARγ, and PPARδ into pCMX as previously described by Umesono et al., in Cell 65:1255-1266 (1991)). Construction of the reporter PPRE3 -TK-LUC has also been previously described by Kliewer et al., (1992) supra. Cotransfection assays in CV-1 cells were done in 48 well plates using N-[1-(2,3-dioleoyloxy)-propyl[N,N,N-trimethylammonium methyl sulfate (DOTAP) according to the manufacturer's instructions (Boehringer Mannheim). Transfections contained […] of receptor expression plasmid vector, 20 ng of the reporter PPRE3 -TK-LUC, 60 ng of pCMX-βGAL (β-galactosidase) as an internal control, and 210 ng of carrier plasmid pGEM. Cells were incubated in the presence of DOTAP for 8 hours, washed, and incubated in the presence of peroxisome proliferators or fatty acids for 36 hours. Cell extracts were prepared and assayed for luciferase and β-galactosidase activity as previously described (Umesono, supra). All experimental points were done in triplicate.

[3] = biological target: T2, PPARγ (Mus musculus, UniProt P37238); test: Cotransfection assay, PPRE3-TK-LUC reporter with CMX-PPARγ; type: cell-based; details: CV-1 cells; for activation of PPARγ (reporter expression), in words: 5 μM Wy 14,643, 30 μM linoleic acid or 30 μM LY-171883; for rank order of efficacy of activation, PPARγ: FIG. 4, 5 μM Wy 14,643, 30 μM linoleic acid, 30 μM LY-171883
T2 sequence (P37238 31-475 N383S): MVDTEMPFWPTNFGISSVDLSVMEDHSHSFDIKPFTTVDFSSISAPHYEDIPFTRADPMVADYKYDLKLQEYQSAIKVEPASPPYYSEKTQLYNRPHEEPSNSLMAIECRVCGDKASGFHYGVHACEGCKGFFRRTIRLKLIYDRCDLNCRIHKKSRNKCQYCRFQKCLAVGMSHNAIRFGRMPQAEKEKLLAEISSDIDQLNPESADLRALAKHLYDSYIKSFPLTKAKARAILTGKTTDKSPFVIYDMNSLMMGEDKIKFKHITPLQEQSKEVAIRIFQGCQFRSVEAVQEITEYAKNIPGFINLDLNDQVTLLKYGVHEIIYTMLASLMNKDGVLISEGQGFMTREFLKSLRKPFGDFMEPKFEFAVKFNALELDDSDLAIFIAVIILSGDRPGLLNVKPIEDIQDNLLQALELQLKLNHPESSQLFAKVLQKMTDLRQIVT
Text: Luciferase activities are presented as the fold activation achieved in compound-treated versus mock-treated cells. Similar results were obtained in triplicate in three independent experiments.
as §1

[4] = biological target: T3, PPARδ (Mus musculus, UniProt P35396); test: Cotransfection assay, PPRE3-TK-LUC reporter with CMX-PPARδ; type: cell-based; details: CV-1 cells; for activation of PPARδ (reporter expression), in words: 5 μM Wy 14,643, 30 μM linoleic acid or 30 μM LY-171883; for rank order of efficacy of activation, PPARδ: FIG. 4, 5 μM Wy 14,643, 30 μM linoleic acid, 30 μM LY-171883
T3 sequence (P35396 1-440): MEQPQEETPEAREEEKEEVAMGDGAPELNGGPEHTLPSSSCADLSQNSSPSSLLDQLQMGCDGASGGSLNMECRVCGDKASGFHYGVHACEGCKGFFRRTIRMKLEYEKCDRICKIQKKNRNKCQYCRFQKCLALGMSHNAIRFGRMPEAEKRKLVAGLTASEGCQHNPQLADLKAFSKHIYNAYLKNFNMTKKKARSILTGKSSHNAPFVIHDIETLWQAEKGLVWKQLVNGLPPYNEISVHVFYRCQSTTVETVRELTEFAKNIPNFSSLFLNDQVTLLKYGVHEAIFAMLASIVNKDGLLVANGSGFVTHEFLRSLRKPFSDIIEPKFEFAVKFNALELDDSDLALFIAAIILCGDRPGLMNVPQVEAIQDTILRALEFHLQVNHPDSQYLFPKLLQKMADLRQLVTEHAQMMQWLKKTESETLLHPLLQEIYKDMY
Text: as §1

Molecule | activity [1] [fold] | rank order of efficacy of activation, PPARα [2] | activation of PPARγ (reporter expression), in words [3] | rank order of efficacy of activation, PPARγ [3] | activation of PPARδ (reporter expression), in words [4] | rank order of efficacy of activation, PPARδ [4] | activation of PPARα (reporter expression), in words ([2]; 5 μM Wy 14,643, 30 μM linoleic acid or 30 μM LY-171883)
PPRE3-TK-LUC reporter | > 100 | – | – | – | – | – | –
CCCCC/C=C\C/C=C\CCCCCCCC(=O)O [linoleic acid] | – | Wy 14,643>LY-171883>linoleic acid | no activation | LY 171883>linoleic acid>Wy 14,643 | strong activators; also recorded: most efficiently activated | linoleic acid>LY-171883 and Wy 14,643 | –
CCCc1c(OCCCCc2nnn[nH]2)ccc(C(C)=O)c1O [LY-171883] | – | Wy 14,643>LY-171883>linoleic acid | significant activation; also recorded: most efficiently activated | LY 171883>linoleic acid>Wy 14,643 | strong activators | linoleic acid>LY-171883 and Wy 14,643 | –
Cc1cccc(Nc2cc(Cl)nc(SCC(=O)O)n2)c1C [Wy 14,643] | – | Wy 14,643>LY-171883>linoleic acid | no activation; also recorded: fail 30 to respond; also recorded: fails to activate | LY 171883>linoleic acid>Wy 14,643 | – | – | most efficiently activated
